{"source": "patent US20030077645A1", "about": "“Superfamily receptor chimeras, translocation assay for superfamily receptor ligands, and methods and kits for detecting and characterizing receptor ligands” (priority 2001, published 2003)", "key": {"GR-RAR chimera": {"test_system": "GR-RAR chimera", "details": "100 nM ATRA, 6 hours", "protocol": "(§3) The 1471.1 cell line was used for this transfection study. Cells were maintained in DMEM with 10% characterized fetal calf serum, L-glutamine, and antibiotics. For transient transfections, 2×10^5 cells were resuspended in cold DMEM without serum with the indicated plasmids and incubated on ice for 1 minute. Electroporations were done in an electroporator at 140 V, 3 pulses and 10 msec pulse length followed by a 10 minute recovery on ice. Cells were then plated and allowed to recover overnight in complete media.\n(§4) Assay of Receptor Activity. Cells were electroporated with 5 ug pLTRLuc, containing the MMTV LTR, and 0.7 ug pCMV-betaGal with or without 10 ug of the indicated receptor expression vector as described above. Cells were plated in duplicate in 100 mm dishes in DMEM containing 10% charcoal/dextran-treated FCS, as described above, and allowed to recover overnight. The next day, cells were treated with the indicated ligand for 6 hours.\n(§5) Transfected cells were treated with the indicated ligand for 6 hours. Fold inductions are shown in the bottom table, and were calculated from the luciferase activity, normalized to beta-galactosidase activity, of ligand induced samples compared to untreated controls."}, "GFP-RAR (wild type RAR)": {"target": "T1, GFP-RAR (wild type RAR) (Homo sapiens, UniProt P10276)", "T1 sequence (P10276 1-462)": "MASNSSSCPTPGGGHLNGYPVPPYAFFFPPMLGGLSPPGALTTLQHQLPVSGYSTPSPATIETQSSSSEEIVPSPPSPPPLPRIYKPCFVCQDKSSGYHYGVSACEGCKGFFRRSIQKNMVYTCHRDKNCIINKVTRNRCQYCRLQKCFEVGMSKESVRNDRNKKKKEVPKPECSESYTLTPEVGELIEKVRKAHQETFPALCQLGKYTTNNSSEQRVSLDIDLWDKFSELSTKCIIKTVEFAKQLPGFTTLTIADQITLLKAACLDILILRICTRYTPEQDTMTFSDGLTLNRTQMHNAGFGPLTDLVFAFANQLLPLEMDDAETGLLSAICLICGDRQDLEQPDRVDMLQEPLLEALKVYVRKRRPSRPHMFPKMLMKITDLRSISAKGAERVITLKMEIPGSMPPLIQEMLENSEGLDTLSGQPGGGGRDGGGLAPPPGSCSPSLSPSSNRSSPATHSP", "details": "100 nM ligand, 1 hour, mouse mammary adenocarcinoma cells", "procedure": "(§1) Fluorescence Microscopy. For fluorescence microscopy, cells were electroporated with 2 ug GFP-GR-RAR, GFP-GR, or GFP-RAR. […] GFP was excited with a 488 nm laser lines supplied from a air cooled argon laser. GFP emission was monitored between 505 and 590 nm with a pinhole setting of 1.0.\n(§2) FIG. 3 is a series of photographs which depict subcellular trafficking of chimeric receptor. Mouse mammary adenocarcinoma cells were transfected with GFP-GR-RAR (panels A, B, C), GFP-GR (panels D, E, F), or GFP-RAR (panels G, H, I)."}, "GFP-GR-RAR": {"test_system": "GFP-GR-RAR", "details": "100 nM ligand, 1 hour, mouse mammary adenocarcinoma cells", "procedure": "as §1, §2"}, "Endogenous GR": {"target": "T2, Endogenous GR (Mus musculus, UniProt P06537)", "T2 sequence (P06537 1-792)": "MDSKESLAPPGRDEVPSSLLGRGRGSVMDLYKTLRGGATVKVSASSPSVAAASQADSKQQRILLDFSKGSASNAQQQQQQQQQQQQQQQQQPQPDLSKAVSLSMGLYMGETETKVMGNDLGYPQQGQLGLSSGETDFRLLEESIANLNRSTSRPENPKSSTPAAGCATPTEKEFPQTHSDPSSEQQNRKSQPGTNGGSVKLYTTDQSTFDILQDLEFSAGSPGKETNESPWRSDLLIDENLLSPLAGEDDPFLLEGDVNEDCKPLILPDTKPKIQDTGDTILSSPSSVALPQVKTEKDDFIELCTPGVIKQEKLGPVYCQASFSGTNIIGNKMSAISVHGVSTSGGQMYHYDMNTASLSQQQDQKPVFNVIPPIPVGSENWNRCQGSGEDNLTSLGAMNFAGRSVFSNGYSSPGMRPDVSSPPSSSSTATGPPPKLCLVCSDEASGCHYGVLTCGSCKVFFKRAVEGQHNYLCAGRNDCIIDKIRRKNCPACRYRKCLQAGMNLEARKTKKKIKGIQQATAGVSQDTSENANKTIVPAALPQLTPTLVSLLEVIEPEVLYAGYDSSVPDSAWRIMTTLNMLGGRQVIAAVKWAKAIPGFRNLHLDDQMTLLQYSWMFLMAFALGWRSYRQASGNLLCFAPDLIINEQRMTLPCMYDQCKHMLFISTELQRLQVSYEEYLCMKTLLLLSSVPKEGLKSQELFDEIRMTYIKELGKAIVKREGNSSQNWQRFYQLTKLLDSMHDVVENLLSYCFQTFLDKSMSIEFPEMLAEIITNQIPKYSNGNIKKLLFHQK", "test": "cell-based", "details": "read-out: Fold induction (luciferase activity normalized to beta-galactosidase activity, vs untreated control)", "protocol": "as §3, §4, §5"}}, "data": [{"smiles": "CC1=C(/C=C/C(C)=C/C=C/C(C)=C/C(=O)O)C(C)(C)CCC1", "note": "[ATRA, all-trans retinoic acid]", "values": [{"measurement": "Fold induction (luciferase activity normalized to beta-galactosidase activity, vs untreated control)", "setting": "GR-RAR chimera", "result": 18.6}, {"measurement": "Subcellular distribution of wild type RAR in response to ligand", "setting": "GFP-RAR (wild type RAR)", "result": "always nuclear"}, {"measurement": "Subcellular distribution of GR-RAR in response to ligand", "setting": "GFP-GR-RAR", "result": "translocated to the nucleus"}, {"measurement": "fold induction at 0.1 µM", "setting": "Endogenous GR", "result": 1.27}]}]}
